Source: patent publication US20060004197A1, “Sulfonamide-based compounds as protein tyrosine kinase inhibitors” (priority 2004, published 2006)

How the values were obtained:
Assay type in all cases: biochemical
Settings in all cases: NI = no inhibition at 100 μg/mL
[1] = target: Recombinant Csk (Homo sapiens, UniProt P41240); assay: Csk tyrosine kinase activity, poly E4Y / 32P-ATP phosphorylation assay
[2] = target: T1, Recombinant human Src (Homo sapiens, UniProt P12931); assay: Src tyrosine kinase activity, poly E4Y / 32P-ATP phosphorylation assay
T1 construct: made in house; host or cells: baculovirus-insect cell system

[3] = target: FGF receptor (FGFr); assay: FGFr tyrosine kinase activity, poly E4Y / 32P-ATP phosphorylation assay

T1 sequence (P12931 whole entry): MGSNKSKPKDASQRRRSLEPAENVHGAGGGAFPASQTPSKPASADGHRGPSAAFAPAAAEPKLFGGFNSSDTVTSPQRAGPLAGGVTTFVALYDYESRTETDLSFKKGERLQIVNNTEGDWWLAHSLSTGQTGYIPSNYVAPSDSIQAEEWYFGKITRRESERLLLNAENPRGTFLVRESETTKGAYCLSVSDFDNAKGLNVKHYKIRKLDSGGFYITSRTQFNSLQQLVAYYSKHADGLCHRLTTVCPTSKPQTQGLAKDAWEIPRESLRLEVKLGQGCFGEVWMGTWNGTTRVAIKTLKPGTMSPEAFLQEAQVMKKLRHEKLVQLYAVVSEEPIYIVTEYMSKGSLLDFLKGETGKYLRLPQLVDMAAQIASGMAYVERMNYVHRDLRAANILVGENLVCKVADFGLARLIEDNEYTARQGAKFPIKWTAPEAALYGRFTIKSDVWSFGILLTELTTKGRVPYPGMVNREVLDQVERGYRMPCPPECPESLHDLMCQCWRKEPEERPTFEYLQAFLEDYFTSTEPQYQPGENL
Sequence of Recombinant Csk (P41240 whole entry, species assumed): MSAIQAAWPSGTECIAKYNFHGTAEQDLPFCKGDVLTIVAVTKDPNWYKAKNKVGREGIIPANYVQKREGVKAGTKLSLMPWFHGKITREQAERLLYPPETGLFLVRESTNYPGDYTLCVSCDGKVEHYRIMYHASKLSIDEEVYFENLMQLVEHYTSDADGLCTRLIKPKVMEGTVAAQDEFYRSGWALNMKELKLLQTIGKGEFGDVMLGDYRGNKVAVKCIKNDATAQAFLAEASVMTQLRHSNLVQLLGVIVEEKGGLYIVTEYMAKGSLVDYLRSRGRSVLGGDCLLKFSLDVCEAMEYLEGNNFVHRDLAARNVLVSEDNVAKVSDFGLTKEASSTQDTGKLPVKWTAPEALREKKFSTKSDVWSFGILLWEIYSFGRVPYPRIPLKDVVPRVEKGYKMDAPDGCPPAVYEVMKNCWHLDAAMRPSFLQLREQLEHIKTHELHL

Compound	IC50 ([1]; Table 2, Formula I compounds) [µM]	IC50 ([2]; Table 2, Formula I compounds) [µM]	IC50 ([3]; Table 2, Formula I compounds) [µM]	IC50 ([1]; Table 3, Formula II compounds) [µM]	IC50 ([2]; Table 3, Formula II compounds) [µM]	IC50 ([3]; Table 3, Formula II compounds) [µM]	IC50 (μM) FGFr ([3]; Table 3, Formula II compounds)
Cc1ccc(S(=O)(=O)Nc2cc(SCc3ccc(Cl)cc3)c([N+](=O)[O-])cc2NS(=O)(=O)c2ccc(C)cc2)cc1 [Compound 4q, N-[4-(4-chloro-benzylsulfanyl)-5-nitro-2-(4-toluenesulfonylamino)-phenyl]-4-toluenesulfonamide]	4.1	1	2.7				
Cc1ccc(S(=O)(=O)Nc2cc(SCc3ccccc3Cl)c([N+](=O)[O-])cc2NS(=O)(=O)c2ccc(C)cc2)cc1 [Compound 4r, N-[4-(2-chloro-benzylsulfanyl)-5-nitro-2-(4-toluenesulfonylamino)-phenyl]-4-toluenesulfonamide]	4.2	0.65	1.9				
COc1ccc(CSc2cc(NS(=O)(=O)c3ccc(C)cc3)c(NS(=O)(=O)c3ccc(C)cc3)cc2[N+](=O)[O-])cc1 [Compound 4s, N-[4-(4-methoxy-benzylsulfanyl)-5-nitro-2-(4-toluenesulfonylamino)-phenyl]-4-toluenesulfonamide]	5.7	1.3	4.3				
CS(=O)(=O)Nc1cc(Sc2ccc(Cl)cc2)c([N+](=O)[O-])cc1NS(C)(=O)=O [Compound 4u, N-[5-(4-chloro-phenylsulfanyl)-2-methanesulfonylamino-4-nitro-phenyl]-methanesulfonamide]	333	590	188				
Cc1ccc(S(=O)(=O)Nc2cc(-c3ccccc3)c([N+](=O)[O-])cc2NS(=O)(=O)c2ccc(C)cc2)cc1 [Compound 8, N-[5-nitro-4-phenyl-2-(4-toluenesulfonylamino)-phenyl]-4-toluenesulfonamide]	10.4	1.7	4.9				
CCc1ccc(S(=O)(=O)Nc2ccc(Oc3ccc(OC)cc3)cc2NS(=O)(=O)c2ccc(CC)cc2)cc1 [Compound 12a, 4-ethyl-N-[2-(4-ethyl-benzenesulfonylamino)-4-(4-methoxy-phenoxy)-phenyl]-benzenesulfonamide]				> 176	23	44	
Cc1ccc(S(=O)(=O)Nc2ccc(Oc3ccc(CC(=O)O)cc3)cc2NS(=O)(=O)c2ccc(C)cc2)cc1 [Compound 12aa, {4-[3,4-bis(4-toluenesulfonylamino)-phenoxy]-phenyl}-acetic acid]				77	6.7	10.6	
COc1ccc(Oc2ccc(NS(=O)(=O)c3ccc(C(C)C)cc3)c(NS(=O)(=O)c3ccc(C(C)C)cc3)c2)cc1 [Compound 12b, 4-isopropyl-N-[2-(4-isopropyl-benzenesulfonylamino)-4-(4-methoxy-phenoxy)-phenyl]-benzenesulfonamide]				> 168	18.5	45	
Cc1ccc(S(=O)(=O)Nc2ccc(OCCCO)cc2NS(=O)(=O)c2ccc(C)cc2)cc1 [Compound 12bb, N-[4-(3-hydroxy-propoxy)-2-(4-toluenesulfonylamino)-phenyl]-4-toluenesulfonamide]				> 204	> 204		NI (NI = no inhibition at 100 μg/mL)
COc1ccc(Oc2ccc(NS(=O)(=O)c3ccc(Cl)cc3)c(NS(=O)(=O)c3ccc(Cl)cc3)c2)cc1 [Compound 12c, 4-chloro-N-[2-(4-chloro-benzenesulfonylamino)-4-(4-methoxy-phenoxy)-phenyl]-benzenesulfonamide]				95	8.6	19	
COc1ccc(Oc2ccc(NS(=O)(=O)c3ccc(F)cc3)c(NS(=O)(=O)c3ccc(F)cc3)c2)cc1 [Compound 12d, 4-fluoro-N-[2-(4-fluoro-benzenesulfonylamino)-4-(4-methoxy-phenoxy)-phenyl]-benzenesulfonamide]				73	24	35	
COc1ccc(Oc2ccc(NS(=O)(=O)c3ccc(Oc4ccccc4)cc3)c(NS(=O)(=O)c3ccc(Oc4ccccc4)cc3)c2)cc1 [Compound 12e, N-[4-(4-methoxy-phenoxy)-2-(4-phenoxy-benzenesulfonylamino)-phenyl]-4-phenoxy-benzenesulfonamide]				> 144	19	46	
COc1ccc(Oc2ccc(NS(=O)(=O)c3cccc([N+](=O)[O-])c3)c(NS(=O)(=O)c3cccc([N+](=O)[O-])c3)c2)cc1 [Compound 12f, N-[4-(4-methoxy-phenoxy)-2-(3-nitro-benzenesulfonylamino)-phenyl]-3-nitro-benzenesulfonamide]				> 167	20	35	
Cc1ccc(S(=O)(=O)Nc2ccc(Sc3ccc(Cl)cc3)cc2NS(=O)(=O)c2ccc(C)cc2)cc1 [Compound 12ff, N-[4-(4-chloro-phenylsulfanyl)-2-(4-toluenesulfonylamino)-phenyl]-4-toluenesulfonamide]				8.6	4	3.6	
COc1ccc(Oc2ccc(NS(=O)(=O)Cc3ccccc3)c(NS(=O)(=O)Cc3ccccc3)c2)cc1 [Compound 12g, N-[4-(4-methoxy-phenoxy)-2-phenylmethanesulfonylamino-phenyl]-C-phenyl-methanesulfonamide]				102	35	70	
COc1ccc(Sc2ccc(NS(=O)(=O)c3ccc(C)cc3)c(NS(=O)(=O)c3ccc(C)cc3)c2)cc1 [Compound 12gg, N-[5-(4-methoxy-phenylsulfanyl)-2-(4-toluenesulfonylamino)-phenyl]-4-toluenesulfonamide]				> 180	16	17	
COc1ccc(Oc2ccc(NS(=O)(=O)c3cccc4ccccc34)c(NS(=O)(=O)c3cccc4ccccc34)c2)cc1 [Compound 12h, naphthalene-1-sulfonic acid [4-(4-methoxy-phenoxy)-2-(naphthalen-1-yl-sulfonylamino)-phenyl]-amide]				98	9	36	
CCCCSc1ccc(NS(=O)(=O)c2ccc(C)cc2)c(NS(=O)(=O)c2ccc(C)cc2)c1 [Compound 12hh, N-[4-butylsulfanyl-2-(4-toluenesulfonylamino)-phenyl]-4-toluenesulfonamide]				> 198	18	30	
COc1ccc(Oc2ccc(NS(=O)(=O)c3ccc4ccccc4c3)c(NS(=O)(=O)c3ccc4ccccc4c3)c2)cc1 [Compound 12i, naphthalene-2-sulfonic acid [4-(4-methoxy-phenoxy)-2-(naphthalen-2-yl-sulfonylamino)-phenyl]-amide]				> 164	8	48	
COc1ccc(Oc2ccc(NS(=O)(=O)c3ccc(NC(C)=O)cc3)c(NS(=O)(=O)c3ccc(NC(C)=O)cc3)c2)cc1 [Compound 12j, N-[2-(4-acetamido-benzenesulfonylamino)-4-(4-methoxy-phenoxy)-phenyl]-4-acetamido-benzenesulfonamide]				> 160	50	192	
COc1ccc(Oc2ccc(NS(=O)(=O)c3ccc(OC)cc3)c(NS(=O)(=O)c3ccc(OC)cc3)c2)cc1 [Compound 12k, N-[2-(4-methoxy-benzenesulfonylamino)-4-(4-methoxy-phenoxy)-phenyl]-4-methoxy-benzenesulfonamide]				88	21	44	
CCCCS(=O)(=O)Nc1ccc(Oc2ccc(OC)cc2)cc1NS(=O)(=O)CCCC [Compound 12l, butane-1-sulfonic acid [2-(butane-1-sulfonylamino)-4-(4-methoxy-phenoxy)-phenyl]-amide]				> 212	40	81	
COc1ccc(Oc2ccc(NS(=O)(=O)c3ccc(OC)c(OC)c3)c(NS(=O)(=O)c3ccc(OC)c(OC)c3)c2)cc1 [Compound 12m, N-[2-(3,4-dimethoxy-benzenesulfonylamino)-4-(4-methoxy-phenoxy)-phenyl]-3,4-dimethoxy-benzenesulfonamide]				> 159	54		NI (NI = no inhibition at 100 μg/mL)
COc1ccc(Oc2ccc(NS(=O)(=O)c3ccccc3)c(NS(=O)(=O)c3ccccc3)c2)cc1 [Compound 12n, N-[2-benzenesulfonylamino-4-(4-methoxy-phenoxy)-phenyl]-benzenesulfonamide]				> 196	29	24	
COc1ccc(Oc2ccc(NS(=O)(=O)c3ccc(C(C)(C)C)cc3)c(NS(=O)(=O)c3ccc(C(C)(C)C)cc3)c2)cc1 [Compound 12o, N-[2-(4-t-butyl-benzenesulfonylamino)-4-(4-methoxy-phenoxy)-phenyl]-4-t-butyl-benzenesulfonamide]				> 161	7.2	22	
COc1ccc(Oc2ccc(NS(=O)(=O)c3ccc(C)cc3)c(NS(=O)(=O)c3ccc(C)cc3)c2)cc1 [Compound 12p, N-[5-(4-methoxy-phenoxy)-2-(4-toluenesulfonylamino)-phenyl]-4-toluenesulfonamide]				> 186	28	26	
COc1ccc(Oc2ccc(NS(=O)(=O)c3c(C)cc(C)cc3C)c(NS(=O)(=O)c3c(C)cc(C)cc3C)c2)cc1 [Compound 12q, N-[4-(4-methoxy-phenoxy)-2-(2,4,6-trimethylbenzenesulfonylamino)-phenyl]-2,4,6-trimethylbenzenesulfonamide]				> 168	39	42	
Cc1ccc(S(=O)(=O)Nc2ccc(Oc3ccc(F)cc3)cc2NS(=O)(=O)c2ccc(C)cc2)cc1 [Compound 12t, N-[4-(4-fluoro-phenoxy)-2-(4-toluenesulfonylamino)-phenyl]-4-toluenesulfonamide]				105	19	40	
Cc1ccc(S(=O)(=O)Nc2ccc(Oc3ccc4ccccc4c3)cc2NS(=O)(=O)c2ccc(C)cc2)cc1 [Compound 12u, N-[4-(naphthalene-2-yloxy)-2-(4-toluenesulfonylamino)-phenyl]-4-toluenesulfonamide]				104	12	38	
